Source: ChEMBL document CHEMBL6114952, “Synthesis and antitumor effects of novel betulinic acid derivatives bearing electrophilic moieties” (Bioorg Med Chem, 2025)
pIC50: −log10 of the molar value.

Columns and labels:
Assay type in all cases: functional, cell-based
HeLa = experiment: Antiproliferative activity against human HeLa cells assessed as inhibition of cell proliferation incubated for 48 hrs by MTT assay
MDA-MB-231 = experiment: Antiproliferative activity against human MDA-MB-231 cells assessed as inhibition of cell proliferation incubated for 48 hrs by MTT assay; settings: MDA-MB-231, 48 h
MCF7 = experiment: Antiproliferative activity against human MCF7 cells assessed as inhibition of cell proliferation incubated for 48 hrs by MTT assay; settings: MCF7, 48 h

pIC50 (HeLa) | pIC50 (MDA-MB-231) | pIC50 (MCF7) | SMILES
4.73 | 4.73 | 4.76 | C=C(C)[C@@H]1CC[C@]2(C(=O)O)CC[C@]3(C)[C@H](CC[C@@H]4[C@@]5(C)CC[C@H](OC(=O)CBr)C(C)(C)[C@@H]5CC[C@]43C)[C@@H]12
4.67 | 4.59 | 4.68 | C=C(C)[C@@H]1CC[C@]2(C(=O)N3CCN(C)CC3)CC[C@]3(C)[C@H](CC[C@@H]4[C@@]5(C)CC[C@H](OC(=O)N6CCN(C(=O)CCl)CC6)C(C)(C)[C@@H]5CC[C@]43C)[C@@H]12
< 4.00 | < 4.00 | < 4.00 | C=C(C)[C@@H]1CC[C@]2(C(=O)OCc3ccccc3)CC[C@]3(C)[C@H](CC[C@@H]4[C@@]5(C)CC[C@H](OC(=O)N6CCN(C(=O)CCl)CC6)C(C)(C)[C@@H]5CC[C@]43C)[C@@H]12
4.82 | 4.75 | 4.79 | C=C(C)[C@@H]1CC[C@]2(C(=O)O)CC[C@]3(C)[C@H](CC[C@@H]4[C@@]5(C)CC[C@H](OC(=O)CCl)C(C)(C)[C@@H]5CC[C@]43C)[C@@H]12
4.47 | 4.51 | 4.45 | C=CC(=O)O[C@H]1CC[C@]2(C)[C@H]3CC[C@@H]4[C@H]5[C@H](C(=C)C)CC[C@]5(C(=O)O)CC[C@@]4(C)[C@]3(C)CC[C@H]2C1(C)C
< 3.82 | < 3.82 | < 3.82 | C=C(C)[C@@H]1CC[C@]2(C(=O)OCc3ccccc3)CC[C@]3(C)[C@H](CC[C@@H]4[C@@]5(C)CC[C@H](OC(=O)NC(=O)CCl)C(C)(C)[C@@H]5CC[C@]43C)[C@@H]12
5.06 | 5.05 | 5.14 | C=C(C)[C@@H]1CC[C@]2(C(=O)O)CC[C@]3(C)[C@H](CC[C@@H]4[C@@]5(C)CC[C@H](OC(=O)NCCCCNC(=O)CCl)C(C)(C)[C@@H]5CC[C@]43C)[C@@H]12
4.18 | 4.45 | 4.29 | C=C(C)[C@@H]1CC[C@]2(C(=O)O)CC[C@]3(C)[C@H](CC[C@@H]4[C@@]5(C)CC[C@H](OC(=O)C(Cl)Cl)C(C)(C)[C@@H]5CC[C@]43C)[C@@H]12
< 4.12 | – | < 4.12 | C=C(C)[C@@H]1CC[C@]2(C(=O)OCc3ccccc3)CC[C@]3(C)[C@H](CC[C@@H]4[C@@]5(C)CC[C@@H](OC(=O)CCl)C(C)(C)[C@@H]5CC[C@]43C)[C@@H]12
< 4.00 | < 4.00 | < 4.00 | C=C(C)[C@@H]1CC[C@]2(C(=O)N3CCN(C(=O)CCl)CC3)CC[C@]3(C)[C@H](CC[C@@H]4[C@@]5(C)CC[C@H](OC(=O)Nc6ccccc6)C(C)(C)[C@@H]5CC[C@]43C)[C@@H]12
4.76 | 4.75 | 4.78 | C=CCNC(=O)[C@]12CC[C@@H](C(=C)C)[C@@H]1[C@H]1CC[C@@H]3[C@@]4(C)CC[C@H](OC(=O)N5CCN(C(=O)CCl)CC5)C(C)(C)[C@@H]4CC[C@@]3(C)[C@]1(C)CC2
5.70 | – | 5.60 | C=C(C)[C@@H]1CC[C@]2(C(=O)N3CCN(C(=O)CCl)CC3)CC[C@]3(C)[C@H](CC[C@@H]4[C@@]5(C)CCC(=O)C(C)(C)[C@@H]5CC[C@]43C)[C@@H]12
5.13 | 5.07 | 5.14 | C=C(C)[C@@H]1CC[C@]2(C(=O)O)CC[C@]3(C)[C@H](CC[C@@H]4[C@@]5(C)CC[C@H](OC(=O)NCCCNC(=O)CCl)C(C)(C)[C@@H]5CC[C@]43C)[C@@H]12
5.06 | 5.02 | 5.17 | C=C(C)[C@@H]1CC[C@]2(C(=O)O)CC[C@]3(C)[C@H](CC[C@@H]4[C@@]5(C)CC[C@H](OC(=O)NCCNC(=O)CCl)C(C)(C)[C@@H]5CC[C@]43C)[C@@H]12
4.77 | – | 4.77 | C=C(C)[C@@H]1CC[C@]2(C(=O)O)CC[C@]3(C)[C@H](CC[C@@H]4[C@@]5(C)CC[C@@H](OC(=O)CCl)C(C)(C)[C@@H]5CC[C@]43C)[C@@H]12
< 4.12 | < 4.12 | < 4.12 | C=C(C)[C@@H]1CC[C@]2(C(=O)OCc3ccccc3)CC[C@]3(C)[C@H](CC[C@@H]4[C@@]5(C)CC[C@H](OC(=O)CCl)C(C)(C)[C@@H]5CC[C@]43C)[C@@H]12
4.52 | 4.44 | 4.52 | C=C(C)[C@@H]1CC[C@]2(C(=O)N3CCN(C(C)=O)CC3)CC[C@]3(C)[C@H](CC[C@@H]4[C@@]5(C)CCC(=O)C(C)(C)[C@@H]5CC[C@]43C)[C@@H]12
4.51 | 4.58 | 4.51 | C=C(C)[C@@H]1CC[C@]2(C(=O)O)CC[C@]3(C)[C@H](CC[C@@H]4[C@@]5(C)CC[C@H](OC(=O)N6CCN(C(=O)C(F)(F)Cl)CC6)C(C)(C)[C@@H]5CC[C@]43C)[C@@H]12
< 4.12 | < 4.12 | < 4.12 | C=C(C)[C@@H]1CC[C@]2(C(=O)OC)CC[C@]3(C)[C@H](CC[C@@H]4[C@@]5(C)CC[C@H](OC(=O)CCl)C(C)(C)[C@@H]5CC[C@]43C)[C@@H]12

SMILES | pIC50 (HeLa) | pIC50 (MDA-MB-231) | pIC50 (MCF7)
C=C(C)[C@@H]1CC[C@]2(C(=O)O)CC[C@]3(C)[C@H](CC[C@@H]4[C@@]5(C)CC[C@H](OC(=O)CC)C(C)(C)[C@@H]5CC[C@]43C)[C@@H]12 | 4.40 | 4.51 | 4.35
C=C(C)[C@@H]1CC[C@]2(C(=O)N3CCNCC3)CC[C@]3(C)[C@H](CC[C@@H]4[C@@]5(C)CCC(=O)C(C)(C)[C@@H]5CC[C@]43C)[C@@H]12 | 5.52 | 5.52 | 5.40
C=C(C)[C@@H]1CC[C@]2(C(=O)O)CC[C@]3(C)[C@H](CC[C@@H]4[C@@]5(C)CC[C@H](O)C(C)(C)[C@@H]5CC[C@]43C)[C@@H]12 [BETULINIC ACID] | 4.29 | 4.18 | 4.39
C=C(C)[C@@H]1CC[C@]2(C(=O)O)CC[C@]3(C)[C@H](CC[C@@H]4[C@@]5(C)CC[C@H](OC(C)=O)C(C)(C)[C@@H]5CC[C@]43C)[C@@H]12 | 4.49 | 4.46 | 4.36
